From paper PMC4057235, “Development and Evaluation of Small Peptidomimetic Ligands to Protease-Activated Receptor-2 (PAR2) through the Use of Lipid Tethering” (PLoS ONE, 2014)

How the values were obtained:
[1] = target: T1, PAR2 (Homo sapiens, UniProt P55085); assay: Ca2+ desensitization assay in 16HBE14o- cells with 2at-LIGRL-NH2; format: cell-based; details: compound at its activating concentration, ATP 5 µM
T1 construct: 16HBE14o- cells on E-plates in growth medium; endogenous in cells; host or cells: 16HBE14o- cells
T1 sequence (P55085 26-397): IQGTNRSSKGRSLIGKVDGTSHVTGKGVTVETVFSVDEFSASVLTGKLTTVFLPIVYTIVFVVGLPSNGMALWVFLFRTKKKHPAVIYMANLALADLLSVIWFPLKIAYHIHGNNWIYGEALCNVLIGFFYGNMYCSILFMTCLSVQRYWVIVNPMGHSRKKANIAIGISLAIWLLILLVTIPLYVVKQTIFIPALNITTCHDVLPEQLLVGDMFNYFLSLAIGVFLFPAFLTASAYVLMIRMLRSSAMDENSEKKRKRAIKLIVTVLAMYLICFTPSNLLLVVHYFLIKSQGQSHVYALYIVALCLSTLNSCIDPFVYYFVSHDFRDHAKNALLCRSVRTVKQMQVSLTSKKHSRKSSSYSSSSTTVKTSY
Description: 16HBE14o- cells or CHO cells were loaded with fura 2-acetomethoxyl ester (CalBiochem or Molecular Probes) for 30 min at room temperature. Cells were washed with HBSS and allowed to sit for at least 20 min prior to digital imaging. For activation and desensitization assay experiments using 16HBE14o- cells, [Ca^2+]i was measured as previously described. Experiments consisted of 20 sec of recording of cells in HBSS to determine resting [Ca^2+]i, followed by a 10 sec wash to introduce ligand and up to 10 min of recording for ligand washes required for desensitization experiments. Briefly, fura-2 fluorescence was observed on an Olympus IX70 microscope with a 40X oil immersion objective after alternating excitation between 340 and 380 nm by a 75 W Xenon lamp linked to a Delta Ram V illuminator (PTI) and a gel optic line. Intracellular Ca^2+ concentration ([Ca^2+]i) for each individual cell in the field of view was calculated by ratiometric analysis of fura-2 fluorescence using equations originally published in [31]. Individual ratios were calculated every sec throughout the experiments. […] Percent activation graphs are determined from 3–6 experiments for each ligand concentration. […] Ca^2+ imaging of CHO cells was similar; each ligand concentration tested included at least 3 experiments and a minimum of 200 cells analyzed during each experiment. […]

[2] = target: T2, MrgprC11 (Mus musculus, UniProt Q8CIP3); parameters: method as in PMID 21775281; details: cited from earlier work
T2 construct: An MrgprC11 cDNA in pcDNA3.1 vector was transfected into CHO cells; expressed in transfected cells; host or cells: CHO cells, transient transfection with Lipofectamine 2000
T2 sequence (Q8CIP3 1-322): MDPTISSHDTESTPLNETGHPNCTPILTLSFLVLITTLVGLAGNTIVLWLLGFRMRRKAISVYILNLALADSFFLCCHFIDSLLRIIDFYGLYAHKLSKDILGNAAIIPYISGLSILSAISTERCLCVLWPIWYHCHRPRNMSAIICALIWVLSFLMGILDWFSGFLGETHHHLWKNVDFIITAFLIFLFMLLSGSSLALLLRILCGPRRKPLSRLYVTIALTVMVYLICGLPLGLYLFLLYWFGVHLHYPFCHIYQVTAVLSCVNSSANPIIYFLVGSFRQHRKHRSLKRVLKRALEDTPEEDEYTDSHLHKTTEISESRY

[3] = target: T1, PAR2; parameters: method as in PMID 21467041; details: 16HBE14o- cells; read-out: RTCA EC50; cited from earlier work
[4] = target: T2, MrgprC11; assay: Ca2+ response in MrgprC11 transfected CHO cells; format: cell-based
Description: CHO cells were cultured in DMEM supplemented with 10% FBS and 1% penicillin and streptomycin at 37°C in a 5% CO2 atmosphere. One day before transfection, CHO cells were plated in a 60 mm cell culture dish at a concentration of 1×10^5 cells/cm^2 and grown without antibiotics. An MrgprC11 cDNA in pcDNA3.1 vector was transfected into CHO cells using Lipofectamine™ 2000 (Invitrogen) prior to transfer to coverslips for experiments. Coverslips were coated with 0.1 mg/ml poly-D-lysine (from 2 mg/ml stock) and incubated for 1 hr at room temperature, after which the coating solution was removed and the coverslips were washed twice with double distilled water. CHO cells were seeded on coverslips at a concentration of 1×10^5 cells/cm^2 6 hr after transfection. Transfected cells were incubated for 24 hr prior to Ca^2+ imaging.
16HBE14o- cells or CHO cells were loaded with fura 2-acetomethoxyl ester (CalBiochem or Molecular Probes) for 30 min at room temperature. Cells were washed with HBSS and allowed to sit for at least 20 min prior to digital imaging. For activation and desensitization assay experiments using 16HBE14o- cells, [Ca^2+]i was measured as previously described. Experiments consisted of 20 sec of recording of cells in HBSS to determine resting [Ca^2+]i, followed by a 10 sec wash to introduce ligand and up to 10 min of recording for ligand washes required for desensitization experiments. Briefly, fura-2 fluorescence was observed on an Olympus IX70 microscope with a 40X oil immersion objective after alternating excitation between 340 and 380 nm by a 75 W Xenon lamp linked to a Delta Ram V illuminator (PTI) and a gel optic line. Intracellular Ca^2+ concentration ([Ca^2+]i) for each individual cell in the field of view was calculated by ratiometric analysis of fura-2 fluorescence using equations originally published in [31]. Individual ratios were calculated every sec throughout the experiments. [Ca^2+]i traces over time are averaged [Ca^2+]i of all cells within a field of view (80–120) and are representative of at least 3 experiments. Cells were considered activated by the ligand if their resting [Ca^2+]i was increased above a 200 nM threshold, a 2–4 fold increase above typical resting values. Percent activation graphs are determined from 3–6 experiments for each ligand concentration. Time to threshold in individual cells represent between 200–400 cells from at least 3 experiments at each ligand concentration. Ca^2+ imaging of CHO cells was similar; each ligand concentration tested included at least 3 experiments and a minimum of 200 cells analyzed during each experiment.

[5] = parameters: method as in PMID 20873792; details: at high concentrations (100 µM); cited from earlier work

Compound: Nc1ncnc2c1ncn2[C@@H]1O[C@H](COP(=O)(O)OP(=O)(O)OP(=O)(O)O)[C@@H](O)[C@H]1O [ATP]
- Ca2+ response after PAR2 desensitization with 50 µM 2at-LIGRL-NH2 [1]: remained an effective agonist

Compound: SLIGRL-NH2 (H-SLIGRL-NH2)
- EC50 ([2]; read-out: MrgprC11 activation EC50): 10000 nM

Compound: SLIGR-NH2
- MrgprC11 signaling [2]: lost MrgprC11 signaling capacity

Compound: 6-aminonicotinyl-LIGRL-NH2
- EC50 [3]: 430 nM

Compound: 2at-LIGRL-NH2 [reference compound]
- EC50 [3]: 310 nM
- Ca2+ response after PAR2 desensitization with 50 µM 2at-LIGRL-NH2 [1]: did not result in an increase of [Ca^2+]i
- Ca2+ response (% of cells) ([4]; 1 µM): no response
- Ca2+ response (% of cells) ([4]; 10 µM): 10%

Compound: CCC(C)C(NC(=O)C(CC1CCCCC1)NC(=O)c1ccno1)C(N)=O (stereo not drawn) [Compound 5io-Cha-I-NH2]
- solubility [5]: lack of solubility
